Results: patent US8563729B2, “Thienopyridone derivatives as AMP-activated protein kinase (AMPK) activators” (Merck Patent GmbH, priority 2008, dated 2013)

How the values were obtained:
[1] = molecular target: T1, AMPK protein (recombinant α1β1γ2) (Homo sapiens, UniProt Q13131+Q9Y478); assay: AMPK enzymatic activity (Delfia, AMARA peptide substrate); type: biochemical; conditions: compound 30 μM vs AMP 30 μM; 125 μM ATP; ratio 90% or higher = direct activator
T1 construct: made in house; host or cells: E. coli
Experimental: The following biological test allows the determination of the efficacy of such compounds of formula (I) onto AMPK protein (recombinant α1β1γ2).
Human recombinant AMPK enzyme was expressed in E. Coli and was reactivated in vitro by LKB1 prior to enzyme activity determination.
AMPK enzyme activities were assayed by using A Delfia technology. AMPK enzyme activities were carried out in microtiter plates (50 mM Hepes buffer, pH 7.4 with 125 μM ATP respectively) in the presence of a synthetic peptide substrate (AMARAASAAALARRR, the “AMARA” peptide) and activators in serial dilutions. Reactions were initiated by the addition of AMPK (50-100 ng). Following mixing, the plates were incubated for 30 min at room temperature. Enzyme activity was assayed by using an anti-phosphoserine antibody to measure the quantity of phosphate incorporated into the AMARAA.
(§1) N°: Number of the molecule
Activity: Ratio between the % of control (basal activity) of compound of formula (I) at 30 μM and the % of control (basal activity) of AMP (natural substrate) at 30 μM.
Compounds of formula (I) in the table II are considered as direct activator of AMPK if the ratio is 90% or higher.

H-2 Kb cells = assay: Glucose uptake in H-2 Kb cells (in vitro cellular test); type: cell-based, mouse; conditions: H-2 Kb cells differentiated in muscle, 4 hours incubation, 2-deoxy-D-[1,2 3H] glucose uptake 10 min
Experimental: Glucose Uptake in H-2 Kb Cells (In Vitro Cellular Test)
The following cellular test allows the determination of the effect of AMPK activators such as compounds of formula (I) onto glucose uptake in a muscle cellular model.
H-1-2 Kb cells derived from heterozygous H-2 Kb tsA58 transgenic mouse were grown in 24-well in plates coated with matrigel and were cultured at 33° C. for 4 days under permissive conditions, as described previously by Fryer et al. (Diabetes 49 (12): 1978, 2000).
For differentiation in muscle, cells were switched to non-permissive culture conditions (37° C. in the absence of interferon-γ). After 3 days, cells were incubated for 4 hours in DMEM 1 g/l glucose culture medium containing different concentrations of the tested molecules. Then glucose uptake was measured by incubating the cells for 10 min with radiolabelled 2-deoxy-D-[1,2 ^3H] glucose. Glucose uptake was terminated by rapidly washing the plates 2 times with ice-cold NaCl 0.9%. The cells were then solubilized in 0.1N NaOH for 30 min. Radioactivity was determined by liquid scintillation counting.
as §1
Activity (table III): Concentration of compound (I) for a glucose uptake equal or higher to glucose uptake induced by insulin (170 nM)
^++ or **concentration of compound (I) ≦10 micro Molar
^+ or *concentration of compound (I) >10 micro Molar

T1 sequence (Q13131 whole entry): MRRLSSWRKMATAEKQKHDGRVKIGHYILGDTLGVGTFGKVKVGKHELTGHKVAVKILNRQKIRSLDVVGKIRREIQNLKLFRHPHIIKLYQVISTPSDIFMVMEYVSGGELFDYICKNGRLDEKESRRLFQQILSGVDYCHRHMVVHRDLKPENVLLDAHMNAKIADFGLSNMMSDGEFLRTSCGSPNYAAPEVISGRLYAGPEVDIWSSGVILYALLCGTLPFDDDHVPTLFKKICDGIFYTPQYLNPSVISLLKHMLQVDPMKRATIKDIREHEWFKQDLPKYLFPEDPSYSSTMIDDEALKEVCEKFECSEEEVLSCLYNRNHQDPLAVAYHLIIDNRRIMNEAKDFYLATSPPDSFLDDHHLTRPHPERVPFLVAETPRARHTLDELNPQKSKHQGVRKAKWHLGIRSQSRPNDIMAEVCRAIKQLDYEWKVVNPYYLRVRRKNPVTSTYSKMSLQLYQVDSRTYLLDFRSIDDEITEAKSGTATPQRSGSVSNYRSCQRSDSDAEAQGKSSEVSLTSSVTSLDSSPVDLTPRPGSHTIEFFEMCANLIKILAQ
T1 sequence (Q9Y478 whole entry): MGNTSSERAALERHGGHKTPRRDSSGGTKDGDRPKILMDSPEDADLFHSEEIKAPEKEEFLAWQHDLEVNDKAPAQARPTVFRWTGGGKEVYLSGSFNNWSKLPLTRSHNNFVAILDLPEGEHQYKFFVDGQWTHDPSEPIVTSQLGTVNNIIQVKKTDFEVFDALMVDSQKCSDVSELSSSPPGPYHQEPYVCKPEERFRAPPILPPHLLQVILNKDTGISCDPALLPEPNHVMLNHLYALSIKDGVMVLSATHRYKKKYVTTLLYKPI
T1 sequence (Q9UGJ0 whole entry partner): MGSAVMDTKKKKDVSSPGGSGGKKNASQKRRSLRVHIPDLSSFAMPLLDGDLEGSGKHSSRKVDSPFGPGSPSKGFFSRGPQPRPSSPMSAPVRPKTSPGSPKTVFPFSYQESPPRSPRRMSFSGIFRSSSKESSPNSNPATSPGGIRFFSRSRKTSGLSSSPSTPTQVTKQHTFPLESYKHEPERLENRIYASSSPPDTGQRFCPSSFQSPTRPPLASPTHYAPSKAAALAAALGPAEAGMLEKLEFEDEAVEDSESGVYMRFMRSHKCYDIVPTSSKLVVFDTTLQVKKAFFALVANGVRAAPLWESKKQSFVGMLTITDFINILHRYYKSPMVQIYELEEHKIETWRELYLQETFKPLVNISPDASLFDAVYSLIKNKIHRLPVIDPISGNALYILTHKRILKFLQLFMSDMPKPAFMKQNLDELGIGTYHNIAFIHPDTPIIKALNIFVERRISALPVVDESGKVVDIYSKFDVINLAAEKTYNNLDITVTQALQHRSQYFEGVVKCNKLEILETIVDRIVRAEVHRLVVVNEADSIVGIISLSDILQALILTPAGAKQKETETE

Row | Structure (SMILES) | activity: Ratio between the % of control (basal activity) of compound of formula (I) at 30 μM and the % of control (basal activity) of AMP at 30 μM [1] [%] | Activity (table III): Concentration of compound (I) for a glucose uptake equal or higher to glucose uptake induced by insulin (170 nM) (H-2 Kb cells)
1 | N#Cc1cccc(-c2c(O)c3c(-c4ccc(F)cc4)c(Cl)sc3[nH]c2=O)c1 [Compound 131] | 331 | * (^+ or *concentration of compound (I) >10 micro Molar)
2 | O=c1[nH]c2sc(Cl)c(-c3ccc4ccccc4c3O)c2c(O)c1-c1ccccc1 [Compound 136] | 488 | ** (^++ or **concentration of compound (I) ≦10 micro Molar)
3 | O=c1[nH]c2sc(Cl)c(-c3ccc4ccccc4c3)c2c(O)c1-c1ccccc1 [Compound 137] | 129 | * (^+ or *concentration of compound (I) >10 micro Molar)
4 | O=c1[nH]c2sc(Cl)c(-c3ccc(O)cc3)c2c(O)c1-c1ccccc1 [Compound 138] | 114 | ** (^++ or **concentration of compound (I) ≦10 micro Molar)
5 | COc1ccc(-c2c(Cl)sc3[nH]c(=O)c(-c4ccccc4)c(O)c23)cc1 [Compound 139] | 114 | ** (^++ or **concentration of compound (I) ≦10 micro Molar)
6 | O=c1[nH]c2sc(Cl)c(-c3ccc(F)cc3)c2c(O)c1-c1ccccc1 [Compound 140] | 123 | ** (^++ or **concentration of compound (I) ≦10 micro Molar)
7 | O=c1[nH]c2sc(Cl)c(-c3ccccc3)c2c(O)c1-c1cccc(C(F)(F)F)c1 [Compound 143] | 99 | * (^+ or *concentration of compound (I) >10 micro Molar)

More lines, main results first:

Row | activity: Ratio between the % of control (basal activity) of compound of formula (I) at 30 μM and the % of control (basal activity) of AMP at 30 μM [1] [%] | Structure (SMILES) | Activity (table III): Concentration of compound (I) for a glucose uptake equal or higher to glucose uptake induced by insulin (170 nM) (H-2 Kb cells)
8 | 121 | O=c1[nH]c2sc(Cl)c(-c3ccccc3)c2c(O)c1-c1cccc(O)c1 [Compound 148] | ** (^++ or **concentration of compound (I) ≦10 micro Molar)
9 | 120 | COc1cccc(-c2c(O)c3c(-c4ccccc4)c(Cl)sc3[nH]c2=O)c1 [Compound 149] | ** (^++ or **concentration of compound (I) ≦10 micro Molar)
10 | 95 | O=c1[nH]c2sc(Cl)c(-c3ccccc3)c2c(O)c1-c1ccc(O)cc1 [Compound 156] | ** (^++ or **concentration of compound (I) ≦10 micro Molar)
11 | 147 | COc1ccc(-c2c(O)c3c(-c4ccccc4)c(Cl)sc3[nH]c2=O)cc1 [Compound 157] | ** (^++ or **concentration of compound (I) ≦10 micro Molar)
12 | 113 | O=c1[nH]c2sc(Br)c(-c3ccccc3)c2c(O)c1-c1ccccc1 [Compound 161] | ** (^++ or **concentration of compound (I) ≦10 micro Molar)
13 | 107 | O=c1[nH]c2sc(Cl)c(-c3ccccc3)c2c(O)c1-c1ccccc1 [Compound 162] | ** (^++ or **concentration of compound (I) ≦10 micro Molar)
14 | 354 | Cc1ccccc1-c1c(O)c2c(-c3ccccc3)c(Cl)sc2[nH]c1=O [Compound 164] | + (^+ or *concentration of compound (I) >10 micro Molar)
